The values below come from ChEMBL document CHEMBL5346952, “Dimer Peptide Ligands of Vascular Endothelial Growth Factor: Optimizing Linker Length for High Affinity and Antiangiogenic Activity” (J Med Chem, 2023).

pKd: −log10 of the molar value. Starred links: 1 amine or outer side, 2 acyl side, 3 side chain; linkers in the order of their positions; H or OH if unused. Positions of bridges follow the written chain, without caps; N, C: chain ends. Residues, ends and D or L forms follow the SMILES beside them. Chains are numbered I, II in the order given. X1 = O=C(CCOCCOCCOCCOCCOCCOCCOCCOCCOCCOCCOCCOCCOCCOCCOCCOCCOCCOCCOCCOCCOCCOCCOCCOCCOCCC(=O)[*:2])[*:1]

For test [1], the target named is T1, Vascular endothelial growth factor A, long form (Homo sapiens, UniProt P15692).
T1 sequence (P15692 whole entry): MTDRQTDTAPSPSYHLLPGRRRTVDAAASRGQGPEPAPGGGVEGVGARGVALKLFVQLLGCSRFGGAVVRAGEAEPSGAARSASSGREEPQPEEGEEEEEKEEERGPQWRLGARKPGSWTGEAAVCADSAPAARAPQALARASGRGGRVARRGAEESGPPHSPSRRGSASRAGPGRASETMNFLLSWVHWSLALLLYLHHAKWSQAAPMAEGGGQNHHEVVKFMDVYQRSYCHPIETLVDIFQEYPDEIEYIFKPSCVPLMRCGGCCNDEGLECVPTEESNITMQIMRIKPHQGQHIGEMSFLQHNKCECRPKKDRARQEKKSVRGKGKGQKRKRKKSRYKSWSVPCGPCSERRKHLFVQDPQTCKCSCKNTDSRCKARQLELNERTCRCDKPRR
In words: Binding affinity to human VEGF (13 to 107 residues) expressed in Escherichia coli Rosetta (DE3) cells assessed as dissociation constant at 20 degreeC by isothermal titration calorimetry analysis.

Test [2] concerns the target T2, Vascular endothelial growth factor A, long form (Homo sapiens) (UniProt P15692).
T2 sequence (whole entry): T1 sequence (P15692 whole entry)
In words: Binding affinity to human VEGF (13 to 107 residues) expressed in Escherichia coli Rosetta (DE3) cells assessed as Gibbs free energy change at 20 degreeC by isothermal titration calorimetry analysis. In general terms: ITC needs no label: the signal is the heat of the interaction.

The target of test [3] is T2, Vascular endothelial growth factor A, long form (Homo sapiens). In words: Binding affinity to human VEGF (13 to 107 residues) expressed in Escherichia coli Rosetta (DE3) cells assessed as change in enthalpy at 20 degreeC by isothermal titration calorimetry analysis.
Test [4] shares this target. Nature of the test: Binding affinity to human VEGF (13 to 107 residues) expressed in Escherichia coli Rosetta (DE3) cells assessed as change in entropy at 20 degreeC by isothermal titration calorimetry analysis.
Test [5] shares this target. Nature of the test: Binding affinity to human VEGF (13 to 107 residues) expressed in Escherichia coli Rosetta (DE3) cells assessed as change in heat capacity at 20 degreeC by isothermal titration calorimetry analysis.
The target in test [6] is T1, Vascular endothelial growth factor A, long form. Nature of the test: Binding affinity to human VEGF (13 to 107 residues) expressed in Escherichia coli Rosetta (DE3) cells assessed as dissociation constant at 37 degreeC by isothermal titration calorimetry analysis.
Test [7] deals with T2, Vascular endothelial growth factor A, long form (Homo sapiens). In words: Binding affinity to human VEGF (13 to 107 residues) expressed in Escherichia coli Rosetta (DE3) cells assessed as Gibbs free energy change at 37 degreeC by isothermal titration calorimetry analysis.
The target is the same in test [8]. Nature of the test: Binding affinity to human VEGF (13 to 107 residues) expressed in Escherichia coli Rosetta (DE3) cells assessed as change in enthalpy at 37 degreeC by isothermal titration calorimetry analysis.
The target is the same in test [9]. Nature of the test: Binding affinity to human VEGF (13 to 107 residues) expressed in Escherichia coli Rosetta (DE3) cells assessed as change in entropy at 37 degreeC by isothermal titration calorimetry analysis.
Test [10] has as its target T1, Vascular endothelial growth factor A, long form. In words: Binding affinity to human VEGF (13 to 107 residues) expressed in Escherichia coli Rosetta (DE3) cells assessed as dissociation constant at 20 degreeC by direct titration based isothermal titration calorimetry analysis.
Test [11] has the same target. Nature of the test: Binding affinity to human VEGF (13 to 107 residues) expressed in Escherichia coli Rosetta (DE3) cells assessed as dissociation constant at 37 degreeC by direct titration based isothermal titration calorimetry analysis.
The target in test [12] is T2, Vascular endothelial growth factor A, long form (Homo sapiens). Nature of the test: Binding affinity to human VEGF (13 to 107 residues) expressed in Escherichia coli Rosetta (DE3) cells assessed as change in enthalpy at 20 degreeC by direct titration based isothermal titration calorimetry analysis.
The target is the same in test [13]. Nature of the test: Binding affinity to human VEGF (13 to 107 residues) expressed in Escherichia coli Rosetta (DE3) cells assessed as change in enthalpy at 37 degreeC by direct titration based isothermal titration calorimetry analysis.
Test [14] shares this target. In words: Binding affinity to human VEGF (13 to 107 residues) expressed in Escherichia coli Rosetta (DE3) cells assessed as change in entropy at 20 degreeC by direct titration based isothermal titration calorimetry analysis.
The target is the same in test [15]. In words: Binding affinity to human VEGF (13 to 107 residues) expressed in Escherichia coli Rosetta (DE3) cells assessed as change in entropy at 37 degreeC by direct titration based isothermal titration calorimetry analysis.
Test [16] deals with T1, Vascular endothelial growth factor A, long form. Nature of the test: Binding affinity to human VEGF (13 to 107 residues) expressed in Escherichia coli Rosetta (DE3) cells assessed as dissociation constant at 20 degreeC by reverse titration based isothermal titration calorimetry analysis.
The target is the same in test [17]. Nature of the test: Binding affinity to human VEGF (13 to 107 residues) expressed in Escherichia coli Rosetta (DE3) cells assessed as dissociation constant at 37 degreeC by reverse titration based isothermal titration calorimetry analysis.
For test [18], the target named is T2, Vascular endothelial growth factor A, long form (Homo sapiens). In words: Binding affinity to human VEGF (13 to 107 residues) expressed in Escherichia coli Rosetta (DE3) cells assessed as change in enthalpy at 20 degreeC by reverse titration based isothermal titration calorimetry analysis.
Test [19] has the same target. In words: Binding affinity to human VEGF (13 to 107 residues) expressed in Escherichia coli Rosetta (DE3) cells assessed as change in enthalpy at 37 degreeC by reverse titration based isothermal titration calorimetry analysis.
The target is the same in test [20]. In words: Binding affinity to human VEGF (13 to 107 residues) expressed in Escherichia coli Rosetta (DE3) cells assessed as change in entropy at 20 degreeC by reverse titration based isothermal titration calorimetry analysis.
Test [21] shares this target. In words: Binding affinity to human VEGF (13 to 107 residues) expressed in Escherichia coli Rosetta (DE3) cells assessed as change in entropy at 37 degreeC by reverse titration based isothermal titration calorimetry analysis.
The subject of test [22] is HUVEC. In words: Antiangiogenic activity in human HUVEC cells assessed as inhibition of VEGFA-induced capillary tube formation incubated for 6 hrs by matrigel based microscopic analysis. The format is functional, cell-based.
Test [23] deals with HUVEC. Nature of the test: Antiangiogenic activity in human HUVEC cells assessed as inhibition of VEGFA-induced cell migration incubated for 12 hrs by wound healing assay. It counts as functional, cell-based.

What is called pKd is the Kd on a negative log10 scale, so that one unit is a factor of ten. As to `CC[C@H](C)[C@@H]1NC(=O)[C@H](CC(=O)O)NC(=O)[C@@H](NC(C)=O)CSSC[C@@H]2NC(=O)[C@H](CCCCNC(=O)C[C@@H](C(=O)N[C@@H](CC(C)C)C(N)=O)NC(=O)[C@H](CCC(=O)O)NC(=O)[C@H](Cc3ccccc3)NC2=O)NC(=O)[C@H](Cc2c[nH]c3ccccc23)NC(=O)[C@H](CCC(=O)O)NC(=O)[C@H](Cc2c[nH]c3ccccc23)NC(=O)[C@H](CCCCNC(=O)CCOCCOCCOCCOCCOCCOCCOCCOCCOCCOCCOCCOCCOCCOCCOCCOCCOCCOCCOCCOCCOCCOCCOCCOCCOCCC(=O)NCCCC[C@@H]2NC(=O)[C@H](C(C)C)NC(=O)[C@H](Cc3cnc[nH]3)NC(=O)[C@H]([C@@H](C)CC)NC(=O)[C@H](CC(=O)O)NC(=O)[C@@H](NC(C)=O)CSSC[C@@H]3NC(=O)[C@H](CCCCNC(=O)C[C@@H](C(=O)N[C@@H](CC(C)C)C(N)=O)NC(=O)[C@H](CCC(=O)O)NC(=O)[C@H](Cc4ccccc4)NC3=O)NC(=O)[C@H](Cc3c[nH]c4ccccc34)NC(=O)[C@H](CCC(=O)O)NC(=O)[C@H](Cc3c[nH]c4ccccc34)NC2=O)NC(=O)[C@H](C(C)C)NC(=O)[C@H](Cc2cnc[nH]2)NC1=O` (I: Ac-CDIHVKWEWKCFEDL-NH2 / II: Ac-CDIHVKWEWKCFEDL-NH2; disulfide I:1-I:11, II:1-II:11; linker I:6-II:6 via X1; lactam I:10-I:14, II:10-II:14), the pKd is 8.05 in test [1]; 7.59 in test [6]; 7.92 in test [10]; 7.59 in [11]; 7.96 in test [16]; 7.85 in test [17]. For the same molecule, the deltaG in test [2] and in test [7] was -45.2 kJ/mol throughout. For the same molecule, the deltaH in test [3] was -157 kJ/mol; in test [8], -210 kJ/mol; in test [12], -149 kJ/mol; in [13], -210 kJ/mol; in test [18], -156 kJ/mol; in test [19], -212 kJ/mol. In addition, the figures for the -TdeltaS in test [4] and in [9] were 112 kJ/mol and 165 kJ/mol, respectively. In addition, the DeltaCp in test [5] is -0.75 kcal/mol/K. Also, the deltaS was -95.4 cal/mol.K in [14], -127 cal/mol.K in test [15], -91.1 cal/mol.K in test [20] and -127 cal/mol.K in test [21]. In addition, the Activity result in test [22] and in [23] was “Dose-Dependent Effect” throughout.
